For test [1], the target named is T1, CA IX (Homo sapiens, UniProt Q16790). In words: biochemical. Particulars: for Ki: read-out: pKi (exp.) (converted).
The target in test [2] is T1, CA IX. Conditions: read-out: Ki, cited from earlier work.
The mark [3] stands for this setting: library compounds with IDs A… and B…, from observed Ki (nM).
Setting [4] is: library compounds with IDs A… and B…, observed Ki, ref ChEMBL, BindingDB.
Where [5] appears, read: experimental value from the library Ki (IDs A…, B…), values equal log10 of Ki in nM.
Setting [6] is: experimental value used for the QSPR model, library compounds (IDs A…, B…), equals log10 of Ki in nM.
Where [7] appears, read: observed Ki of library compounds (IDs A…, B…), ref ChEMBL and BindingDB.

Read-outs that look alike come from different tables or passages of the source.

Turning to `COc1ccc2c(c1)/C(=N\NC(=O)c1cnn(-c3ccc(S(N)(=O)=O)cc3)c1-c1ccccc1)C(=O)N2` [B0041], the “log10 of Ki in nM” value on CA IX [1] (setting [3]) was 0.519.
Take `C[C@H](NC(=O)Nc1ccc(NS(N)(=O)=O)cc1)c1cccc2ccccc12` [B0045]: the Ki at CA IX [1] (setting [3]) and on CA IX [2] (setting [4]) was 3.4 nM in each case.
On to `N#Cc1c(-c2ccc(Br)cc2)cn(-c2ccc(S(N)(=O)=O)cc2)c1NC(=O)c1ccc(Br)cc1` [B0101], for which the “log10 of Ki in nM” value on CA IX [1] (setting [3]) is 0.724.
As for `NS(=O)(=O)c1ccc(-c2cnc(C3CCC3)o2)cc1` [B0121], the “log10 of Ki in nM” value at CA IX [1] (setting [5]) was 0.813.
Regarding `NS(=O)(=O)c1ccc(-n2nnc(CS[C@H]3O[C@H](CO)[C@@H](O)[C@@H](O)[C@H]3O)c2I)cc1` [B0123], the Ki at CA IX [1] (setting [6]) and at CA IX [2] (setting [7]) was 6.5 nM throughout.
`NS(=O)(=O)c1ccc(NC2=NC(=O)/C(=N/Nc3ccc(Cl)cc3)S2)cc1` [B0138]: the “log10 of Ki in nM” value on CA IX [1] (setting [6]) is recorded as 0.863.
`CC(=O)OC[C@H]1O[C@@H]([S+]([O-])Cc2cn(-c3ccc(S(N)(=O)=O)cc3)nn2)[C@H](OC(C)=O)[C@@H](OC(C)=O)[C@H]1OC(C)=O` (some centres unmarked) [B0152]: the “log10 of Ki in nM” value on CA IX [1] came to 0.886.
Consider `COc1ccc2c(c1)/C(=N\c1ccc(NC(=O)Nc3ccc(S(N)(=O)=O)cc3)cc1)C(=O)N2` [B0174], for which the “log10 of Ki in nM” value at CA IX [1] (setting [3]) is recorded as 0.929.
In the case of `CC(=O)/N=C1\SC(S(N)(=O)=O)=N[C@@H]1C` [B0187], the Ki is 8.99 nM on CA IX [1] and 9 nM at CA IX [2].
Turning to `CN(C)C1=CCN(c2ccncc2S(N)(=O)=O)C=C1` [B0189], the Ki at CA IX [1] (setting [6]) was 8.99 nM; at CA IX [2] (setting [7]) it was 9 nM.
In the case of `CC(=O)OC[C@H]1O[C@@H]([S+]([O-])Cc2cn(-c3ccc(S(N)(=O)=O)cc3)nn2)[C@H](OC(C)=O)[C@@H](OC(C)=O)[C@@H]1OC(C)=O` (some centres unmarked) [B0212], the “log10 of Ki in nM” value at CA IX [1] stood at 0.996.
As to `Cc1ncc(-c2ccc(S(N)(=O)=O)s2)o1` [B0222], the Ki on CA IX [1] (setting [5]) and at CA IX [2] (setting [7]) was 11 nM in each case.
On to `COc1ccc2c(c1)CCN(S(N)(=O)=O)[C@@H]2c1ccc(N)cc1` [B0230], for which the Ki on CA IX [1] (setting [3]) and on CA IX [2] (setting [4]) was 12 nM each time.
For `NS(=O)(=O)c1cc(-c2cnc(C3CC3)o2)cs1` [B0238], the “log10 of Ki in nM” value on CA IX [1] (setting [6]) is given as 1.114.
Regarding `CC(=O)OC[C@@H]1O[C@@H](NS(N)(=O)=O)C[C@@H](OC(C)=O)[C@@H]1OC(C)=O` [B0263], the Ki on CA IX [1] and on CA IX [2] was 16 nM in each case.
With `Cc1ccc2c(c1)/C(=N/c1ccc(NC(=O)Nc3ccc(S(N)(=O)=O)cc3)cc1)C(=O)N2` [B0270], the Ki on CA IX [1] (setting [6]) and at CA IX [2] (setting [7]) was 17 nM each time.
With `NS(=O)(=O)c1ccc(-n2cc(/C=N/Nc3nc(-c4cc5ccccc5oc4=O)cs3)c(-c3ccccc3)n2)cc1` [B0285], the Ki at CA IX [1] (setting [6]) and at CA IX [2] (setting [7]) was 20 nM each time.
For the molecule `NS(=O)(=O)c1ccc(-n2cc(/C=N/Nc3nc(-c4cc5cc(Br)ccc5oc4=O)cs3)c(-c3ccccc3)n2)cc1` [B0298], the Ki on CA IX [1] and at CA IX [2] was 22 nM throughout.
For `NS(=O)(=O)c1ccc(N2C(=O)/C(=C\c3coc4ccccc4c3=O)N=C2c2ccccc2)cc1` [B0301], the Ki on CA IX [1] (setting [3]) and on CA IX [2] (setting [4]) was 23 nM throughout.
For the molecule `C/C(=N/Nc1ccc(S(N)(=O)=O)cc1)c1cc2cc(Br)ccc2oc1=O` [B0309], the Ki on CA IX [1] and at CA IX [2] was 24 nM throughout.
As to `CCOc1ccc(S(=O)(=O)N2CCOCC2)cc1-c1nnc2c(n1)c(C)nn2C` [B0310], the Ki at CA IX [1] (setting [5]) and on CA IX [2] (setting [7]) was 24 nM throughout.
Turning to `NS(=O)(=O)c1cc(-c2cnc(C(=O)N3CCOCC3)o2)cs1` [B0343], the “log10 of Ki in nM” value at CA IX [1] (setting [6]) was 1.447.
With `NS(=O)(=O)c1ccc(NC(=O)Cn2ccc(=O)c(S(N)(=O)=O)c2)cc1` [B0371], the “log10 of Ki in nM” value on CA IX [1] stood at 1.491.
Regarding `COc1ccc2c(=O)n(-c3ccc(S(N)(=O)=O)cc3)c(S)nc2c1` [B0440], at CA IX [1], the “log10 of Ki in nM” value amounted to 1.653.
On the same count and under the same terms, the result for `NOC(=O)c1cc(Cl)c(Cl)c(C(=O)ON)c1` [B0452] reads 1.699.
Turning to `NS(=O)(=O)c1ccc(-c2cnc(C3CCC3)o2)s1` [B0649], the “log10 of Ki in nM” value on CA IX [1] (setting [5]) was determined as 2.193.
As to `Cc1ccc2c(c1)/C(=N\c1ccc(C(=O)Nc3ccc(S(N)(=O)=O)cc3)cc1)C(=O)N2` [B0670], on CA IX [1] (setting [6]), the “log10 of Ki in nM” value turned out to be 2.303.
As for `Cc1ccc(-c2cnc(C3CC3)o2)cc1S(N)(=O)=O` [B0710], the “log10 of Ki in nM” value at CA IX [1] (setting [3]) is listed as 2.502.
Turning to `CC1(C)CC(=O)C2=C(C1)N(c1ccc(S(N)(=O)=O)cc1)C1=C(C(=O)CC(C)(C)C1)C2c1ccc([N+](=O)[O-])cc1` [B0775], the “log10 of Ki in nM” value on CA IX [1] (setting [6]) is 3.009.
Still for that read-out and setting: the result for `Cc1cc(C)oc(=O)c1` [B0786] reads 3.393.
Consider `O=NCc1c(O)ccc(-c2ccc(O)cc2)c1Cl` [B0828], for which, on CA IX [1] (setting [6]), the “log10 of Ki in nM” value was found to be 3.780.

The values are drawn from publication PMC6151961 (Journal of Enzyme Inhibition and Medicinal Chemistry, 2018).
